Reference: US20180296537A1, “METHODS AND COMPOSITIONS FOR DIAGNOSING, TREATING, AND MONITORING TREATMENT OF SHANK3 DEFICIENCY ASSOCIATED DISORDERS” (Novartis AG, priority 2015, published 2018)

Test system: CA1 pyramidal neurons
Assay: Dendritic spine density in hippocampal organotypic slice cultures
Type: cell-based, mouse
Procedure: Wilde type (C57B1/6) mice were housed in a temperature-controlled room and maintained on a 12 hr light/dark cycle. Food and water were available ad libitum and experiments were carried out in accordance with the local authorization guidelines for the care and use of laboratory animals. Slice cultures were established according to the procedure described by Stoppini and colleagues (Galimberti et al., 2006; Stoppini et al., 1991). […] For organotypic slice cultures, brains of P6-P9 transgenic mice were dissected in cold MEM (GIBCO) medium, and hippocampal coronal sections of 400 μm were obtained with a tissue chopper (McIlwain). Slices were selected, placed on Millicell (Millipore, PICM03050) and cultured in 6-well dishes at 35° C. and 5% CO2 in the presence of 1 ml of medium. The entire slice isolation procedure took about 30 min. The culture medium was exchanged every third day. Treatments were performed in fresh culture medium for the indicated time periods.
Brain slices were transfected with plasmids encoding shCont, and shShank3 using helios gene gun system (Bio-Rad Laboratories, #165-2431) as previously described (Proenca et al., 2013). Subsequently, slices were fixed, stained, mounted, and analyzed following the protocols described below in the immunohistochemistry and microscopy paragraphs.
Slices were fixed for 10 minutes in 4% PFA, washed in PBS and blocked for 4 hr at room temperature in 0.3% Triton X-100 20% Horse Serum/PBS (blocking solution). GFP primary antibody was incubated for 24 hr at 4° C. in the blocking solution. Afterwards, slices were washed in PBS, incubated for 2 hr in 0.3% Triton X-100/PBS with Alexa Fluor® 488 Donkey anti-chicken secondary antibody (Life technologies). Finally, slices were washed in PBS, incubated 10 minutes with DAPI (Life technologies) and mounted on glass slides using ProLong mountant (Life technologies).
High resolution images were acquired on an upright Zeiss LSM700 confocal microscope, using a Plan-Neofluar 100×/1.3 oil immersion objective. For the analysis of dendritic spine density, confocal 3D stacks were acquired in CA1 region for each experiment. To quantify spine density, a stretch of approximately 30 μm was selected on secondary dendrites originating at the branch point from the primary dendrite. Only secondary dendrites were considered to reduce variability. Dendritic length was measured using the ImageJ plugin, Simple Neurite tracer, and spine density manually counted using the Cell Counter plugin.
The above findings implicate CLK2 overexpression as a specific anomaly that is causative for attenuated Akt activity in neurons deficient for Shank3. Consequently, inhibiting CLK2 activity or directly activating Akt would restore neuronal impairments associated with Shank3 loss of function. First, a small-molecule Akt-activator, SC79, was tested for its ability to restore Akt phosphorylation (FIG. 5A). SC79 binds directly to Akt to facilitate an ‘open’ conformation of the protein that is accessible to upstream activating kinases (eg. PDK1). This obviates the need for PtdIns(3,4,5)P3 (PIP3) production and recruitment of Akt to the plasma membrane (Rodgers, Cell Metab. 11, 23-34, 2010). […] Decreased principal neuron dendritic spine density has frequently been observed in Shank3 loss of function models (Durand et al., 2007, Nature Genetics 39: 25-27; Peca et al., 2011, Nature 472: 437-442; Verpelli et al., 2011, The Journal of Biological Chemistry 286: 34839-34850). Knock-down of Shank3 in hippocampal organotypic slice cultures, via biolistic transfection of shRNA vectors, faithfully recapitulated this phenotype in CA1 pyramidal neurons, whereby a two-fold reduction in apical dendrite spine density resulted (FIG. 6A). […]

Compound	spine density (Shank3 knock down neurons, TG003 24 hours)	dendritic spine density (knockdown of Shank3 with additional shRNAs, 24 h pre-treatment with TG003, fixed DIV 14)	spine density (Shank3 knock down neurons, 4 μg/ml SC79, 24 hr, DIV 14)	spine density (control neurons, 4 μg/ml SC79, 24 hr, DIV 14)
CCN1/C(=C/C(C)=O)Sc2ccc(OC)cc21 [TG003, (Z)-1-(3-ethyl-5-methoxy-2,3-dihydrobenzothiazol-2-ylidene)propan-2-one]	increased spine density in Shank3 knock down neurons to control levels	corrected		
CCOC(=O)C1=C(N)Oc2ccc(Cl)cc2C1C(C#N)C(=O)OCC (stereo not shown) [SC79]			rescued the spine density impairment in Shank3 knock down neurons	without significantly affecting controls
